The values below come from ChEMBL document CHEMBL4304800, “C4-Phenylthio β-lactams: Effect of the chirality of the β-lactam ring on antimicrobial activity” (2019).

Converted amounts (≈) assume the structure as drawn. The source made the active and inactive calls. The rule behind the calls is not given here.

Experiment [1] concerns Mycobacterium tuberculosis. Description: Antitubercular activity against serine beta-lactamase producing Mycobacterium tuberculosis H37Rv after 14 days in presence of Chol/BSA medium by eleven fold serial dilution method. Format: functional. The settings on record: 336 h.
Experiment [2] deals with Mycobacterium tuberculosis. Description: Antitubercular activity against serine beta-lactamase producing Mycobacterium tuberculosis H37Rv after 14 days in presence of DPPC/BSA medium by eleven fold serial dilution method. Format: functional. The note with it: 336 h.
Experiment [3] concerns Mycobacterium tuberculosis. The experiment is described as follows: Antitubercular activity against serine beta-lactamase producing Mycobacterium tuberculosis H37Rv after 14 days in presence of GAST/Fe medium by eleven fold serial dilution method. The format is functional. The note with it: 336 h.
The subject of experiment [4] is Mycobacterium tuberculosis. The experiment is described as follows: Antitubercular activity against serine beta-lactamase producing Mycobacterium tuberculosis H37Rv after 14 days in presence of Glu/BSA medium by eleven fold serial dilution method. The settings on record: 336 h. The format is functional.
Experiment [5] has as its system Mycobacterium tuberculosis. Description: Antitubercular activity against serine beta-lactamase producing Mycobacterium tuberculosis H37Rv after 14 days in presence of DPCC/Cas medium by eleven fold serial dilution method. The format is functional. The settings on record: 336 h.
A further experiment relates to Moraxella catarrhalis. The experiment is described as follows: Bactericidal activity against serine beta-lactamase producing Moraxella catarrhalis incubated in MH broth for 24 to 48 hrs by microbroth dilution method. Format: functional.
Experiment [6] has as its system Mycobacterium tuberculosis. Description: Antitubercular activity against serine beta-lactamase producing Mycobacterium tuberculosis H37Rv after 14 days in presence of Glu/Cas medium by eleven fold serial dilution method. The note with it: 336 h. Format: functional.
Experiment [7] deals with Mycobacterium tuberculosis. Description: Antitubercular activity against serine beta-lactamase producing Mycobacterium tuberculosis H37Rv after 14 days in presence of middlebrook 7H9/BSA medium by eleven fold serial dilution method. The format is functional. The settings on record: 336 h.
The subject of experiment [8] is Mycobacterium tuberculosis. Description: Antitubercular activity against clinical drug sensitive Mycobacterium tuberculosis K14b00DS after 14 days in presence of middlebrook 7H9/BSA medium by eleven fold serial dilution method. The format is functional. The note with it: 336 h.
In experiment [9] the test system is Mycobacterium tuberculosis. Description: Bactericidal activity against serine beta-lactamase producing Mycobacterium tuberculosis H37Rv assessed as induction of microbial kill at MIC preincubated in middlebrook 7H9 medium for 7 days and further incubated in middlebrook 7H11/BSA supplemented with OADC for 3 weeks by serial dilution based colony counting method. Format: functional.

Experiment [10] deals with Mycobacterium tuberculosis. Description: Bactericidal activity against serine beta-lactamase producing Mycobacterium tuberculosis H37Rv assessed as reduction in microbial cell number at MIC preincubated in middlebrook 7H9 medium for 7 days and further incubated in middlebrook 7H11/BSA supplemented with OADC for 3 weeks by serial dilution based colony counting method. The format is functional, organism-based.

The test system of experiment [11] is Mycobacterium tuberculosis. The experiment is described as follows: Bactericidal activity against non-replicating persistant form of Mycobacterium tuberculosis H37Rv assessed as minimum anaerobicidal concentration by measuring log reduction in viable microbe number at 200 ug/ml preincubated for 7 days in anaerobic condition post adaptation to decreasing oxygen levels and further incubated in middlebrook 7H11/BSA supplemented with ODAC for 4 to 5 weeks by serial dilution based assay. Format: functional.

As to `O=C1CC(Sc2ccc(F)cc2Cl)N1C(=O)NCc1ccccc1` (racemic), the minimum inhibitory concentration (MIC) in [1] came out at 18.8 µg/mL; in experiment [2] it was 12.5 µg/mL; in experiment [4], 25 µg/mL; in [5], 0.78 µg/mL; in experiment [6], 1.5 µg/mL. In addition, the figures for the MIC99 in [3] and in experiment [7] were 0.3 µg/mL and 37.5 µg/mL, respectively. This compound gave an MBC with Moraxella catarrhalis of 12.5 µg/mL (≈ 34.3 µM).

`C[C@@H](NC(=O)N1C(=O)C[C@@H]1Sc1ccc(F)cc1F)c1ccccc1`: the values for the MIC99 in experiment [3] and in experiment [7] were 0.7 µg/mL and 25 µg/mL, respectively. This compound showed an MBC against Moraxella catarrhalis of 50 µg/mL (≈ 138 µM). In addition, the MIC was determined as 50 µg/mL (≈ 138 µM) in the experiment on Moraxella catarrhalis and 25 µg/mL in experiment [8].

Take `C[C@H](NC(=O)N1C(=O)C[C@H]1Sc1c(F)c(F)c(F)c(F)c1F)c1ccccc1`: in [9], the LCK is listed as under 3. Besides, in experiment [10], the outcome was Active. Further, in experiment [3], the MIC99 amounted to 0.7 µg/mL. In the experiment with Moraxella catarrhalis, this compound yielded an MBC of 50 µg/mL (≈ 120 µM) and an MIC of 50 µg/mL (≈ 120 µM). Besides, the MIC99 in experiment [7] came out at 100 µg/mL.

As for `O=C1CC(Sc2ccc(F)c(F)c2)N1` (racemic), in experiment [9], the LCK was under 3. Moreover, the result in experiment [10] was Active. Besides, the MIC99 in experiment [7] was found to be 50 µg/mL.

With `C[C@@H](NC(=O)N1C(=O)C[C@H]1Sc1c(F)c(F)c(F)c(F)c1F)c1ccccc1`, the LCK in experiment [9] is recorded as under 3. Moreover, the result in experiment [10] was Active. In addition, in experiment [11], the Activity amounted to 1 log10CFU/ml. Moreover, the MIC99 in [3] was 0.3 µg/mL. For the same compound, in the experiment on Moraxella catarrhalis, the minimal bactericidal concentration (MBC) was found to be 3.1 µg/mL (≈ 7.45 µM) and the MIC stood at 3.1 µg/mL (≈ 7.45 µM). Further, in [7], the MIC99 was over 100 µg/mL.

`C[C@H](NC(=O)N1C(=O)C[C@@H]1Sc1ccc(C(F)(F)F)cc1)c1ccccc1`: in the experiment on Moraxella catarrhalis, the MBC is 200 µg/mL (≈ 507 µM) and the minimal inhibitory concentration (MIC) was 200 µg/mL (≈ 507 µM). Also, the MIC in experiment [8] is 25 µg/mL. Also, the MIC99 in [7] was determined as 25 µg/mL.

Take `C[C@H](NC(=O)N1C(=O)C[C@H]1Sc1ccc(F)cc1F)c1ccccc1`: the MIC99 was determined as 0.7 µg/mL in [3] and 50 µg/mL in experiment [7]. In the experiment on Moraxella catarrhalis, this compound returned an MBC of 50 µg/mL (≈ 138 µM). In addition, the MIC in the experiment on Moraxella catarrhalis turned out to be 50 µg/mL (≈ 138 µM); in [8], 50 µg/mL.

On to `O=C1CC(Sc2cccc(C(F)(F)F)c2)N1` (racemic), for which the MIC amounted to 12.5 µg/mL in [1]; 12.5 µg/mL in [2]; 25 µg/mL in experiment [4]; 0.78 µg/mL in experiment [5]; 1.5 µg/mL (≈ 6.07 µM) in the experiment on Moraxella catarrhalis; 12.5 µg/mL in experiment [6]. The same compound returned an MBC with Moraxella catarrhalis of 1.5 µg/mL (≈ 6.07 µM). Besides, in experiment [7], the MIC99 stood at 25 µg/mL.

`O=C1CC(Sc2c(F)c(F)c(F)c(F)c2F)N1C(=O)NCc1ccccc1` (racemic): the LCK in experiment [9] is listed as under 3. For the same compound, in experiment [10], the result was Active. Also, the MIC in experiment [1] was 25 µg/mL; in [2], 25 µg/mL; in experiment [4] it was 6.25 µg/mL; in experiment [5], 0.78 µg/mL; in experiment [6] it was 1.5 µg/mL. In the experiment with Moraxella catarrhalis, the MBC turned out to be 6.2 µg/mL (≈ 15.4 µM). The MIC99 in experiment [7] came to 12.5 µg/mL.

Regarding `NNC(=O)c1ccncc1` [ISONIAZID], the MIC99 in experiment [3] was found to be 0.02 µg/mL; in [7], 0.07 µg/mL. Further, in [8], the minimal inhibitory concentration (MIC) turned out to be 0.08 µg/mL.

For `COc1ccccc1S[C@@H]1CC(=O)N1C(=O)N[C@H](C)c1ccccc1`, the results for the MIC99 in [3] and in experiment [7] were 25 µg/mL and over 100 µg/mL, respectively. Moreover, the MIC in the experiment with Moraxella catarrhalis is over 200 µg/mL.

For the compound `C[C@@H](NC(=O)N1C(=O)C[C@@H]1Sc1c(F)c(F)c(F)c(F)c1F)c1ccccc1`, the LCK in [9] was under 3. Also, the result in experiment [10] was Active. Besides, the Activity in experiment [11] was 1 log10CFU/ml. Also, in the experiment with Moraxella catarrhalis, the minimum bactericidal concentration (MBC) was determined as 12.5 µg/mL (≈ 30 µM) and the MIC is 12.5 µg/mL (≈ 30 µM). Further, the MIC99 in experiment [7] is over 100 µg/mL.

Consider `C[C@@H](NC(=O)N1C(=O)C[C@H]1Sc1ccc(F)cc1F)c1ccccc1`, for which the MIC99 in experiment [3] stood at 0.3 µg/mL; in experiment [7] it was 50 µg/mL. The compound further yielded an MBC in the experiment with Moraxella catarrhalis of 12.5 µg/mL (≈ 34.5 µM). In addition, the MIC against Moraxella catarrhalis amounted to 12.5 µg/mL (≈ 34.5 µM); in experiment [8], 25 µg/mL.

As for `C[C@@H](NC(=O)N1C(=O)C[C@H]1Sc1ccc(F)c(Cl)c1)c1ccccc1`, the MIC99 in [3] stood at 1.5 µg/mL. In the experiment with Moraxella catarrhalis, this compound had an MBC of 25 µg/mL (≈ 66 µM) and an MIC of 25 µg/mL (≈ 66 µM). Also, the MIC99 in [7] was 25 µg/mL.

As for `O=C1CC(Sc2ccc(C(F)(F)F)cc2)N1C(=O)NCc1ccccc1` (racemic), the minimum inhibitory concentration (MIC) in [1] turned out to be 25 µg/mL; in experiment [2] it was 25 µg/mL; in [4], 25 µg/mL; in [5] it was 0.78 µg/mL; against Moraxella catarrhalis, 1.6 µg/mL (≈ 4.21 µM); in [8], 25 µg/mL. Also, in experiment [6], the minimum inhibitory concentration (MIC) is 1.5 µg/mL. Also, the MIC99 in [7] is 12.5 µg/mL.
